Where a name gives a salt, the structure may show the parent alone.
Key:
C. freundii 1R524 = test: MIC; conditions: Citrobacter freundii, 1R524
C. freundii 5D60-1 = test: MIC; conditions: Citrobacter freundii, 5D601
P. cepacia OF189 = test: MIC; conditions: Burkholderia cepacia, OF189, P. cepacia OF189; Table 5
P. aeruginosa 5D58-1 = test: MIC; conditions: Pseudomonas aeruginosa, 5D581, P. aeruginosa 5D58-1; Table 5
S. aureus Smith = test: MIC; conditions: Staphylococcus aureus, Table 5
E. cloacae 908RN = test: MIC; conditions: Enterobacter cloacae
C. freundii 1R527 = test: MIC; conditions: Citrobacter freundii, 1R527
C. freundii GN7391 = test: MIC; conditions: Citrobacter freundii, GN7391, C. freundii GN7391
K. pneumoniae 4at521 = test: MIC; conditions: Klebsiella pneumoniae, 4AT521
C. freundii 1U692 = test: MIC; conditions: Citrobacter freundii, 1U692
in vivo = test: in vivo; set-up: species or system Macaco; conditions: monkey, 20 mg/kg
Protocol: Each of 20 mg/kg of the compounds obtained in Example 2, Example 25 and Example 28 was administered parenterally to Macaco and the half-time in blood was measured.
The concentrations of the compounds were measured according to HPLC method. Novapack C18 or Microbondapack C18 (trade name, produced by Waters Co.) was used as a column. Further, cefpiramide was used as a control drug.

E. coli ML4707 = test: MIC; conditions: Escherichia coli, ML4707, E. coli ML4707; Table 5
E. cloacae 1Y247 = test: MIC; format: cell-based; conditions: Enterobacter cloacae, Table 6, read-out: MIC
Protocol: (§1) The minimum inhibition concentrations (MIC) of the compounds obtained in the respective examples described above were measured according to the standard method of Japanese Chemotherapy Association.

S. aureus IAA498 = test: MIC; format: cell-based; conditions: Staphylococcus aureus, Table 5
Protocol: as §1

C. freundii 1U589 = test: MIC; conditions: Citrobacter freundii, 1U589
P. vulgaris GN7919 = test: MIC; conditions: Proteus vulgaris, GN7919
E. cloacae 5D63-2 = test: MIC; conditions: Enterobacter cloacae, 5D632
E. cloacae 1V25 = test: MIC; conditions: Enterobacter cloacae
P. aeruginosa GN10362 = test: MIC; conditions: Pseudomonas aeruginosa, GN10362
S. marcescens GN10857 = test: MIC; conditions: Serratia marcescens, GN10857, S. marcescens GN10857; Table 5
E. colacae GN7471 = test: MIC; conditions: Table 5
P. aeruginosa 4au542 = test: MIC; conditions: Pseudomonas aeruginosa, 4AU542, P. aeruginosa 4au542; Table 5
P. maltophilia OF247 = test: MIC; conditions: Stenotrophomonas maltophilia, Table 5
C. freundii 1R526 = test: MIC; conditions: Citrobacter freundii, 1R526
E. cloacae 5D52-2 = test: MIC; conditions: Enterobacter cloacae, 5D522
C. freundii 1R523 = test: MIC; conditions: Citrobacter freundii, 1R523
E. coli GN5482 = test: MIC; conditions: Escherichia coli, GN5482, E. coli GN5482; Table 5

| MIC (C. freundii 1R524) [µg/mL] | MIC (C. freundii 5D60-1) [µg/mL] | MIC (P. cepacia OF189) [µg/mL] | MIC (P. aeruginosa 5D58-1) [µg/mL] | MIC (S. aureus Smith) [µg/mL] | MIC (E. cloacae 908RN; E. cloacae 908RN, Table 6) [µg/mL] | MIC (E. cloacae 908RN; E. colacae 908RN, Table 5) [µg/mL] | MIC (C. freundii 1R527) [µg/mL] | MIC (C. freundii GN7391; Table 5) [µg/mL] | MIC (C. freundii GN7391; Table 6) [µg/mL] | MIC (K. pneumoniae 4at521) [µg/mL] | MIC (C. freundii 1U692) [µg/mL] | half-life (in vivo) [h] | MIC (E. coli ML4707) [µg/mL] | MIC (E. cloacae 1Y247) [µg/mL] | MIC (S. aureus IAA498) [µg/mL] | MIC (C. freundii 1U589) [µg/mL] | MIC (P. vulgaris GN7919) [µg/mL] | MIC (E. cloacae 5D63-2) [µg/mL] | MIC (E. cloacae 1V25) [µg/mL] | SMILES | further results |
| --- | --- | --- | --- | --- | --- | --- | --- | --- | --- | --- | --- | --- | --- | --- | --- | --- | --- | --- | --- | --- | --- |
| 0.1 | 0.78 | < 0.006 | 0.05 | 6.25 | 3.13 | 1.56 | 0.1 | 6.25 | 6.25 | < 0.006 | 0.39 | 4 | < 0.006 | 12.5 | 12.5 | 0.39 | 0.39 | 0.39 | 6.25 | Cc1cc(SCC2=C(C(=O)O)N3C(=O)C(NC(=O)C(=NOC(C)(C)C(=O)NNC(=O)c4ccc(O)c(O)c4)c4csc(N)n4)C3SC2)n2ncc(C(=O)O)c2n1 (stereo not shown) [Example 25, 7-{2-[2-amino-1,3-thiazol-4-yl]-2-[1-(3-(3,4-dihydroxybenzoyl)carbazoyl)-1-methylethoxyimino]acetamide}-3-[(3-carboxy-5-methylpyrazolo[1,5-a]pyrimidin-7-yl)thiomethyl]-3-cephem-4-carboxylic acid.hydrochloride] | MIC (P. aeruginosa GN10362): 0.025 µg/mL; MIC (S. marcescens GN10857): 0.1 µg/mL; MIC (E. colacae GN7471): 3.13 µg/mL; MIC (P. aeruginosa 4au542): 0.1 µg/mL; MIC (P. maltophilia OF247): 0.1 µg/mL; MIC (C. freundii 1R526): 0.2 µg/mL; MIC (E. cloacae 5D52-2): 0.39 µg/mL; MIC (C. freundii 1R523): 0.2 µg/mL; MIC (E. coli GN5482): < 0.006 µg/mL |
| 0.1 | 12.5 | 0.012 | 0.1 | 12.5 | 1.56 | 0.78 | 0.1 | 0.78 | 1.56 | < 0.006 | 0.39 | 4.7 | 0.012 | 0.78 | 25 | 0.39 | 0.78 | 0.2 | 0.2 | CC(C)(ON=C(C(=O)NC1C(=O)N2C(C(=O)O)=C(CSc3c4c(nc5c(C(=O)O)cnn35)CCC4)CSC12)c1csc(N)n1)C(=O)NNC(=O)c1ccc(O)c(O)c1 (stereo not shown) [Example 28, 7-{2-[2-Amino-1,3-thiazol-4-yl]-2-[1-(3-(3,4-dihydroxybenzoyl)carbazoyl)-1-methylethoxyimino]acetamide}-3-[(3-carboxy-6,7-dihydro-5H-cyclopenta[f]pyrazolo[1,5-a]pyrimidin-8-yl)thiomethyl]-3-cephem-4-carboxylic acid.hydrochloride] | MIC (P. aeruginosa GN10362): 0.05 µg/mL; MIC (S. marcescens GN10857): 0.2 µg/mL; MIC (E. colacae GN7471): 0.78 µg/mL; MIC (P. aeruginosa 4au542): 0.39 µg/mL; MIC (P. maltophilia OF247): 0.39 µg/mL; MIC (C. freundii 1R526): 0.1 µg/mL; MIC (E. cloacae 5D52-2): 0.1 µg/mL; MIC (C. freundii 1R523): 0.2 µg/mL; MIC (E. coli GN5482): < 0.006 µg/mL |

— patent publication US4966900A, “Cephalosporin β-lactam compound and medicinal composition” (priority 1986, dated 1990)
